We go through five compounds from ChEMBL document CHEMBL1133801, “Synthesis, characterisation and antiamoebic activity of new thiophene-2-carboxaldehyde thiosemicarbazone derivatives and their cyclooctadiene Ru(II) complexes” (Bioorg Med Chem Lett, 2001).

The experiment has as its system Entamoeba histolytica. In words: In vitro antiamoebic activity was evaluated against HK-9 strain of Entamoeba histolytica. Type of experiment: functional, organism-based.

In general, IC50 refers to the concentration that inhibits the measured activity by half. A low value points to higher potency.

≈ marks a conversion by molar mass, not a printed value.

In the case of `Cc1ncc([N+](=O)[O-])n1CCO` [METRONIDAZOLE], the IC50 was determined as 0.22 µg/mL (≈ 1.29 µM).
In the case of `S=C(N/N=C/c1cccs1)N1CCCCCC1`, the IC50 worked out at 0.7 µg/mL (≈ 2.62 µM).
As for `S=C(N/N=C/c1cccs1)NC1CCCC1`, the figure is 0.64 µg/mL (≈ 2.53 µM); as for `S=C(N/N=C/c1cccs1)NC1CCCCCCC1`, 0.5 µg/mL (≈ 1.69 µM).
As for `S=C(N/N=C/c1cccs1)NC1CCCCC1`, the figure is 0.56 µg/mL (≈ 2.09 µM).
